From patent US9284296B2, “Bipyridine sulfonamide derivatives for the treatment of neurodegenerative diseases or conditions” (AUBERGINE PHARMACEUTICALS LLC, priority 2010, dated 2016) come the findings set out here.

Assay type in all cases: cell-based
In assay [1] the test system is secretion of amyloid peptide β1-40 (Aβ1-40). Put plainly: Inhibition of β-amyloid secretion (CHO7w cells stably transfected with human APP, ELISA). Particulars: CHO-7W, 24 h incubation, range stated for the listed compounds together. The protocol: The inhibition caused by the compounds on the secretion of amyloid peptide β1-40 (Aβ1-40) was determined by measuring the levels of this peptide in cell supernatants after incubating the cells with several concentrations of the tested compound. A CHO7w cell line, stably transfected with human amyloid precursor protein (APP), was used. Cells were dispensed in 96-well culture plates (5,000 cells/well) and grown in DMEM supplemented with 2% (v/v) foetal bovine serum, 100 U/ml penicillin, 100 μg/ml streptomycin, 2 mM L-glutamine and 200 μg/ml G418 in the presence of several concentrations of the tested compound which had been previously dissolved in DMSO (1% (v/v) DMSO final concentration). After a 24 h incubation the amount of Aβ1-40 secreted to the medium was measured with an ELISA-based commercial kit (Human Amyloid β-40 ELISA High Sensitivity Kit, Millipore, Billerica, Mass., USA) using absorbance at 450 nm as the final readout. In the culture plate several wells were included as a control for lack of Aβ1-40 secretion, in these wells the cells were incubated in the presence of 16% (v/v) DMSO to inhibit cell growth therefore abolishing Aβ1-40 secretion. Likewise, several wells were also included as a control for full Aβ1-40 secretion, in these wells the cells were grown in the presence of 1% (v/v) DMSO. The absorbance of each tested sample was normalized to that of the control wells, so that for every compound concentration the percentage of inhibition was calculated with the following equation:
[formula] where “S” is the absorbance of the sample being considered, “E” is the average absorbance of wells lacking Aβ1-40 secretion and “B” is the average absorbance of wells with full Aβ1-40 secretion. The inhibition values obtained at every compound concentration were fitted to a 4-parameters isotherm equation, as described above, to calculate the […] (i.e., the concentration causing 50% of inhibition of Ab1-40 secretion).
In general terms: An ELISA detects its analyte on a solid surface through an enzyme-linked reagent.

The test system of assay [2] is SH-SY5Y human neuroblastoma cells. The assay can be described thus: Protection against hydrogen peroxide-induced cell death. Particulars: Homo sapiens; SH-SY5Y cells, 1 h preincubation, 100 μM hydrogen peroxide, 24 h, LDH readout of live cells. The protocol:
The aim of this assay is to determine the neuroprotective effect of the compounds when human neuroblastoma cells are exposed to the oxidative stress induced by hydrogen peroxide, which leads to cell death. Therefore the protective effect of the compounds was measured by monitoring cell survival using a suitable commercial kit (Cytotoxicity Detection Kit, Roche Diagnostics GmbH, Mannheim, Germany) based on the quantification of the lactate dehydrogenase activity obtained from lysates of the remaining live cells with a colorimetric assay yielding absorbance at 492 nm as the final readout.
SH-SY5Y human neuroblastoma cells were seeded into 96-well culture plate at a density of 10,000 cells/well. Cells were preincubated for one hour with different concentrations of the compound at a 1% (v/v) DMSO concentration in an equivolumetric mixture of Minimum Essential Medium (MEM) and Nutrient Mixture HAM F12 supplemented with 10% foetal bovine serum, 100 U/ml penicillin, 100 μg/ml streptomycin, 1 mM each of non-essential aminoacids (commercial preparation from GIBCO, Paisley, UK) and 2 mM L-glutamine. Hydrogen peroxide was then added to reach 100 μM and the incubation was extended for 24 h. Then the medium was removed and live cells, which remained attached to the bottom of the plate, were lysed by incubating them during 5 min with 50 μl of 1% (v/v) Triton X-100 in Krebs-Hepes buffer (10 mM Hepes pH7.3 with 145 mM NaCl, 5.5 mM KCl, 1 mM MgCl2, 2 mM CaCl2 and 1 mM glucose). This lysate was used to measure LDH activity using the commercial kit according to the manufacturer's instructions. In the culture plate several wells were included as a control of cell death, in these wells the cells were preincubated with 1% (v/v) DMSO before hydrogen peroxide addition. Likewise, several wells were included as control for full cell survival, in these wells the addition of H2O2 was omitted. The absorbance of each tested sample was normalized to that of the control wells, so that for every compound concentration the percentage of protective effect was calculated with the following equation:
[formula] where “S” is the absorbance of the sample being considered, “E” is the average absorbance of wells used as control of full cell survival and “B” is the average absorbance of wells used as control of cell death. The values obtained at every compound concentration were finally used to calculate the EC50 (i.e., the concentration causing 50% of protective effect) of the tested compound. For that purpose the data were fitted to a classical 4-parameters isotherm equation using the nonlinear regression function of GraphPad™ Prism 5.0 (GraphPad Software Inc.), such equation is described below:
[formula] where “L” is the lower asymptote of the theoretical sigmoidal curve, “H” is the higher asymptote, “C” is the concentration of compound and “n” is the Hill coefficient.

Assay [3] deals with secretion of soluble amyloid precursor protein-α (sAPPα). The assay can be described thus: Stimulation of sAPPα secretion (CHO7w cells stably transfected with human APP, AlphaLISA). The settings on record: for EC50 / Emax: Homo sapiens, CHO-7W, CHO7w cells, 24 h incubation, range stated for the listed compounds together; for Emax: read-out: maximum effect (sAPPα secretion). On the procedure: The effect of the compounds on the stimulation of the secretion of soluble amyloid precursor protein-α (sAPPα) was determined by measuring the levels of this protein in cell supernatants after incubating the cells with several concentrations of the tested compound. A CHO7w cell line, stably transfected with human APP, was used. Cells were dispensed in 96-well culture plates (5,000 cells/well) and grown in DMEM supplemented with 2% (v/v) foetal bovine serum, 100 U/ml penicillin, 100 μg/ml streptomycin, 2 mM L-glutamine and 200 μg/ml G418 in the presence of several concentrations of the tested compound which had been previously dissolved in DMSO (1% (v/v) DMSO final concentration). After 24 h of incubation 5 μl of the culture supernatants were withdrawn and their sAPPα. concentration was measured with a commercial kit (AlphaLISA® Amyloid Precursor Protein-α Secreted Research kit, PerkinElmer, Waltham, Mass., USA) following manufacturer's instructions. In the culture plate several wells were included as a control for background sAPPα secretion, in these wells the cells were incubated with 1% (v/v) DMSO. The results obtained for each tested sample were normalized by using the following equation:
[formula] where “S” is the sAPPα concentration of the sample being considered, “B” is the average sAPPα concentration of wells used for background secretion and “M” is the sAPPα concentration of wells yielding the highest value. These normalized values obtained at every compound concentration were finally used to calculate the EC50 of the tested compound fitting them to a 4-parameters isotherm equation as already described. The average EC50s ranges are reported in Table 4 together with the maximum observed effect (and the concentration at which this effect was reached), this latter value was calculated for each compound according to the following equation:
[formula] with “M” and “B” as defined above.
A general note: Alpha assays give light when donor and acceptor beads are brought close together.

`COc1cc(CNS(=O)(=O)c2ccc(Cl)s2)nc(-c2ccccn2)c1` [Compound 2, 5-Chloro-thiophene-2-sulfonic acid (4-methoxy-[2,2′]bipyridinyl-6-ylmethyl)-amide] returned an IC50 in assay [1] of 300 to 42000 nM. Further, the results for the EC50 in assay [2] and in assay [3] were 800 nM and 500 to 11000 nM, respectively. For the same compound, in assay [3], the Emax lay within 250 to 500%. Besides, the “rank of maximum effect among compounds tested (sAPPα secretion)” value in assay [3] (comparison among tested compounds) is listed as “maximum effect was obtained”.
`COc1cc(CNS(=O)(=O)c2cc(F)cc(F)c2)nc(-c2ccccn2)c1` [Compound 10] displayed a 50% inhibitory concentration (IC50) in assay [1] of 300 to 42000 nM. The EC50 in assay [2] is 1170 nM. Besides, in assay [3], the EC50 was in the range of 500 to 11000 nM and the Emax lay within 250 to 500%.
For the compound `COc1cc(CNS(=O)(=O)c2cc(Cl)sc2Cl)nc(-c2ccccn2)c1` [Compound 19, 2,5-Dichloro-thiophene-3-sulfonic acid (4-methoxy-[2,2′]bipyridinyl-6-ylmethyl)-amide], the IC50 in assay [1] lay in the range of 300 to 42000 nM. The same compound yielded an EC50 in assay [2] of 1300 nM. Besides, in assay [3], the EC50 fell in the range of 500 to 11000 nM and the Emax lay in the range of 250 to 500%.
`CCN(CC)CCOc1cc(CNS(=O)(=O)c2ccc(Cl)s2)nc(-c2ccccn2)c1` [Compound 30, 5-Chloro-thiophene-2-sulfonic acid [4-(2-diethylamino-ethoxy)-[2,2′]bipyridinyl-6-ylmethyl]-amide] registered an IC50 in assay [1] of 300 to 42000 nM. Besides, the EC50 in assay [2] was 290 nM; in assay [3] it was 500 to 11000 nM. Further, the Emax in assay [3] lay in the range of 250 to 500%.
Consider `CS(=O)(=O)c1cc(CNS(=O)(=O)c2ccc(Cl)s2)nc(-c2ccccn2)c1` [Compound 33, 5-Chloro-thiophene-2-sulfonic acid (4-methanesulfonyl-[2,2′]bipyridinyl-6-ylmethyl)-amide], for which the concentration for half-maximal inhibition (IC50) in assay [1] lay in the range of 300 to 42000 nM. In assay [2], the concentration for a half-maximal effect (EC50) came to 1020 nM. Moreover, in assay [3], the EC50 was in the range of 500 to 11000 nM and the Emax was in the range of 250 to 500%.

Broadly, the IC50 is the concentration at which inhibition is half-maximal. Low values mean inhibition by little substance, high ones a need for much substance. One may read the EC50 as the concentration needed to bring the measured effect to its halfway point. Lower therefore signals a more potent agent.
